The values below come from patent US8163756B2 (priority 2004, dated 2012).

In assay [1] the target is T1, Abl kinase (Homo sapiens, UniProt P00519).
T1 sequence (P00519 229-512): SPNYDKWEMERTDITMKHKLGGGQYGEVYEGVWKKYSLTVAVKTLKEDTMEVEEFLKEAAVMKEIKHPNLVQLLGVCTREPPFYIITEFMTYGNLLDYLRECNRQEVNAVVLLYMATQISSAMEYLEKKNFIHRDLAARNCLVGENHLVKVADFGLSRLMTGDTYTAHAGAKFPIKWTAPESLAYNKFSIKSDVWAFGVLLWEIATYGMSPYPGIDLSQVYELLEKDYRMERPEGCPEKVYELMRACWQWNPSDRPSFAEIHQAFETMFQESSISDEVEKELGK
Nature of the assay: Abl kinase assay A1 (pyruvate kinase/lactate dehydrogenase coupled, spectrophotometric). It counts as biochemical. The conditions noted are these: Method A1; for IC50: read-out: Abl Data (IC50). How it is done:
IC50 values were calculated from a series of percent inhibition values determined at a range of inhibitor concentrations using software routines as implemented in the GraphPad Prism software package.

Assay [2] deals with B-Raf(V599E) kinase (Homo sapiens, UniProt P15056, V600E). Nature of the assay: B-Raf(V599E) kinase assay B1 (construct 1, MEK1 substrate, coupled spectrophotometric). It counts as biochemical. How it is done: The test compounds were incubated with the reaction mixtureat 30° C. for 2 h. […] The reaction rate was calculated using the […] time frame. […] IC50 values were calculated from a series of percent inhibition values determined at a range of inhibitor concentrations using software routines as implemented in the GraphPad Prism software package.
Sequence of B-Raf(V599E) kinase (P15056 with tags, fused parts or gaps V600E): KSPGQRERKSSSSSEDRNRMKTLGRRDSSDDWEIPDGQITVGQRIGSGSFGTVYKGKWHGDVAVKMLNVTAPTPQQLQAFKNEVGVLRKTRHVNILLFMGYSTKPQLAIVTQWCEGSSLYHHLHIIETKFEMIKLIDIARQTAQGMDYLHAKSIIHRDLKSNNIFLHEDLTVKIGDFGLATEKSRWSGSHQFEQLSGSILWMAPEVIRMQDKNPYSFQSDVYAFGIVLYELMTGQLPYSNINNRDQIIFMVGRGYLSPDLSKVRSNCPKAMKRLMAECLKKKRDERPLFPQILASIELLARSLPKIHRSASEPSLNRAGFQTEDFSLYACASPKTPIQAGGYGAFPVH

For the compound `CC(C)(C)c1cc(NC(=O)Nc2cc(F)cc(F)c2)n(-c2cc(CO)c3ccccc3c2)n1` [Example 59, 1-(3-t-butyl-1-(4-(hydroxymethyl)naphthalen-2-yl)-1H-pyrazol-5-yl)-3-(3,5-difluorophenyl)urea], the figures for the IC50 in assay [1] and in assay [2] were 79 nM and 8.7 nM, respectively.
On to `COc1cccc(-n2nc(C(C)(C)C)cc2NC(=O)Nc2cc(Cl)cc(Cl)c2)c1` [Example 14, 1-(3-t-butyl-1-(3-methoxyphenyl)-1H-pyrazol-5-yl)-3-(3,5-dichlorophenyl)urea], for which the IC50 in assay [1] worked out at 2400 nM; in assay [2], 70 nM.
With `CC(C)(C)c1cc(NC(=O)Nc2cc(F)cc(F)c2)n(-c2cc(CC(N)=O)c3ccccc3c2)n1` [Example 83, 1-(1-(4-(2-amino-2-oxoethyl)naphthalen-2-yl)-3-t-butyl-1H-pyrazol-5-yl)-3-(3,5-difluorophenyl)urea], the IC50 stood at 87 nM in assay [1] and 8.5 nM in assay [2].
As to `CC(C)(C)c1cc(NC(=O)Nc2ccc(F)cc2F)n(-c2cc(CC(N)=O)c3ccccc3c2)n1` [Example 82, 1-(1-(4-(2-amino-2-oxoethyl)naphthalen-2-yl)-3-t-butyl-1H-pyrazol-5-yl)-3-(2,4-difluorophenyl)urea], the IC50 came out at 360 nM in assay [1] and 5.9 nM in assay [2].
`CC(C)(C)c1cc(NC(=O)Nc2cccc(Cl)c2Cl)n(-c2cc(CCN)c3ccccc3c2)n1` [Example 193, 1-(1-(4-(2-aminoethyl)naphthalen-2-yl)-3-t-butyl-1H-pyrazol-5-yl)-3-(2,3-dichlorophenyl)urea]: the IC50 turned out to be 81 nM in assay [1] and 2.6 nM in assay [2].
In the case of `CC(C)(C)c1cc(NC(=O)Nc2ccc3c(c2)OCO3)n(-c2cccc(C#N)c2)n1` [Example 6, 1-(benzo[d][1,3]dioxol-5-yl)-3-(3-t-butyl-1-(3-cyanophenyl)-1H-pyrazol-5-yl)urea], the IC50 in assay [1] was 3000 nM; in assay [2], 180 nM.
In the case of `CCOC(=O)Cc1cc(-n2nc(C(C)(C)C)cc2NC(=O)Nc2cccc(Cl)c2Cl)cc2ccccc12` [Example 76], in assay [1] (@ 10 μM, read-out: Abl Data (percent inhibition)), the inhibition at 10 µM amounted to 31%. Also, the 50% inhibitory concentration (IC50) in assay [2] turned out to be 11 nM.
Take `CC(C)(C)c1cc(NC(=O)Nc2cc(F)cc(F)c2F)n(-c2cc(CN)c3ccccc3c2)n1` [Example 70, 1-(1-(4-(aminomethyl)naphthalen-2-yl)-3-t-butyl-1H-pyrazol-5-yl)-3-(2,3,5-trifluorophenyl)urea]: the results for the concentration for half-maximal inhibition (IC50) in assay [1] and in assay [2] were 50 nM and 5 nM, respectively.
Turning to `CC(C)(C)c1cc(NC(=O)Nc2cccc(Cl)c2Cl)n(-c2cccc(-c3cccnc3)c2)n1` [Example 276, 1-[5-t-butyl-2-(3-pyridin-3-yl-phenyl)-2H-pyrazol-3-yl]-3-(2,3-dichlorophenyl)urea], the concentration for half-maximal inhibition (IC50) worked out at 2300 nM in assay [1] and 4.9 nM in assay [2].
For the compound `CC(C)(C)c1cc(NC(=O)Nc2ccc(F)c(F)c2F)n(-c2ccc3c(c2)CCNC3)n1` [Example 147, 1-(3-t-butyl-1-(1,2,3,4-tetrahydroiso-quinolin-6-yl)-1H-pyrazol-5-yl)-3-(2,3,4-trifluorophenyl)-urea], the 50% inhibitory concentration (IC50) in assay [1] amounted to 140 nM; in assay [2], 10 nM.
For the compound `CC(C)(C)c1cc(NC(=O)Nc2cccc(Cl)c2Cl)n(-c2cc(CC(N)=O)c3ccccc3c2)n1` [Example 78, 2-(3-{3-t-butyl-5-[3-(2,3-dichlorophenyl)ureido]pyrazol-1-yl}naphthalen-1-yl)acetamide], the 50% inhibitory concentration (IC50) turned out to be 72 nM in assay [1] and 3.5 nM in assay [2].
Regarding `CC(C)(C)c1cc(NC(=O)Nc2cccc(Cl)c2Cl)n(-c2cccc(CC(=O)NCCO)c2)n1` [Example 37, 1-(3-t-butyl-{1-[3-(2-hydroxyethylamino)-2-oxo-thyl]-phenyl}-1H-pyrazol-5-yl)-3-(2,3-dichlorophenyl)-urea], the IC50 is 1400 nM in assay [1] and 5.7 nM in assay [2].
For `CC(C)(C)c1cc(NC(=O)Nc2cccc(Cl)c2Cl)n(-c2ccc3c(c2)C(=O)CC3)n1` [Example 102, 1-[5-t-butyl-2-(3-oxo-indan-5-yl)-2H-pyrazol-3-yl]-3-(2,3-dichlorophenyl)urea], in that order: 110 nM and 2.5 nM.
In the case of `CC(C)(C)c1cc(NC(=O)Nc2ccc(F)c(F)c2F)n(-c2cc(CO)c3ccccc3c2)n1` [Example 62, 1-(3-t-butyl-1-(4-(hydroxylmethyl)naphthalen-2-yl)-1H-pyrazol-5-yl)-3-(2,3,4-trifluorophenyl)urea], the half-inhibitory concentration (IC50) in assay [1] is 110 nM; in assay [2] it was 3.2 nM.
For the compound `CC(C)(C)c1cc(NC(=O)Nc2cccc(C#N)c2)n(-c2ccc3c(c2)NCC3)n1` [Example 114, 1-(3-t-butyl-1-(indolin-6-yl)-1H-pyrazol-5-yl)-3-(3-cyanophenyl)urea], the figures for the 50% inhibitory concentration (IC50) in assay [1] and in assay [2] were 640 nM and 115 nM, respectively.
For `CC(C)(C)c1cc(NC(=O)Nc2cccc(F)c2F)n(-c2ccc3c(c2)CCNC3)n1` [Example 144, 1-(3-t-butyl-1-(1,2,3,4-tetrahydroiso-quinolin-6-yl)-1H-pyrazol-5-yl)-3-(2,3-difluorophenyl)-urea], the half-inhibitory concentration (IC50) worked out at 200 nM in assay [1] and 9.6 nM in assay [2].
Regarding `CC(C)(C)c1cc(NC(=O)Nc2ccc(Cl)cc2)n(-c2ccc3c(c2)CNCC3)n1` [Example 124, 1-[3-t-butyl-1-(1,2,3,4-tetrahydroisoquinolin-7-yl)-1H-pyrazol-5-yl]-3-(4-chloro-phenyl)urea], the half-maximal inhibitory concentration (IC50) was determined as 1400 nM in assay [1] and 173 nM in assay [2].
Take `CC(=O)N1CCc2cc(-n3nc(C(C)(C)C)cc3NC(=O)Nc3cccc(Cl)c3Cl)ccc21` [Example 107, 1-(1-(1-acetylindolin-5-yl)-3-t-butyl-1H-pyrazol-5-yl)-3-(2,3-dichlorophenyl)urea]: the 50% inhibitory concentration (IC50) in assay [1] was determined as 180 nM; in assay [2] it was 2.1 nM.
For `COc1cccc(-n2nc(C(C)(C)C)cc2NC(=O)Nc2cccc(C#N)c2)c1` [Example 17, 1-(3-t-butyl-1-(3-methoxyphenyl)-1H-pyrazol-5-yl)-3-(3-cyanophenyl)urea], in that order: 370 nM and 89 nM.
With `CC(C)(C)c1cc(NC(=O)Nc2cccc(Cl)c2Cl)n(-c2cc(CC(=O)O)c3ccccc3c2)n1` [Example 77, 2-(3-(3-t-butyl-5-(3-(2,3-dichlorophenyl)-ureido)-1H-pyrazol-1-yl)naphthalen-1-yl)acetic acid], the 50% inhibitory concentration (IC50) in assay [1] worked out at 260 nM; in assay [2] it was 3.9 nM.
Regarding `CC(C)(C)c1cc(NC(=O)Nc2cc(F)c(F)c(F)c2)n(-c2cc(CO)c3ccccc3c2)n1` [Example 66, 1-(3-t-butyl-1-(4-(hydroxymethyl)naphthalen-2-yl)-1H-pyrazol-5-yl)-3-(3,4,5-trifluorophenyl)urea], the IC50 is 71 nM in assay [1] and 8.5 nM in assay [2].
With `CC(C)(C)c1cc(NC(=O)Nc2cc(F)c(F)cc2F)n(-c2cc(CN)c3ccccc3c2)n1` [Example 71, 1-(1-(4-(aminomethyl)naphthalen-2-yl)-3-t-butyl-1H-pyrazol-5-yl)-3-(2,4,5-trifluorophenyl)urea], the half-inhibitory concentration (IC50) in assay [1] is 90 nM; in assay [2], 4.1 nM.
`CC(C)(C)c1cc(NC(=O)Nc2cccc(C#N)c2)n(-c2ccc3c(c2)CCN3)n1` [Example 111, 1-(3-t-butyl-1-(indolin-5-yl)-1H-pyrazol-5-yl)-3-(3-cyanophenyl)urea]: the 50% inhibitory concentration (IC50) in assay [1] amounted to 620 nM; in assay [2], 97 nM.
For the compound `CC(C)(C)c1cc(NC(=O)Nc2ccc(Cl)cc2)n(-c2ccc3c(c2)CN(C(=O)NS(C)(=O)=O)CC3)n1` [Example 128, N-(7-{3-t-butyl-5-[3-(4-chloro-phenyl)ureido]pyrazol-1-yl}-3,4-dihydro-1H-isoquinoline-2-carbonyl)methane-sulfonamide], the IC50 in assay [1] was 7500 nM; in assay [2], 67 nM.
On to `CC(C)(C)c1cc(NC(=O)Nc2ccc(F)c(F)c2F)n(-c2cc(CC(N)=O)c3ccccc3c2)n1` [Example 80, 1-(1-(4-(2-amino-2-oxoethyl)naphthalen-2-yl)-3-t-butyl-1H-pyrazol-5-yl)-3-(2,3,4-trifluorophenyl)urea], for which the IC50 in assay [1] was found to be 79 nM; in assay [2], 4.5 nM.
Consider `CC(C)(C)c1cc(NC(=O)Nc2ccc(F)cc2)n(-c2cc(CC(N)=O)c3ccccc3c2)n1` [Example 84, 1-(1-(4-(2-amino-2-oxoethyl)naphthalen-2-yl)-3-t-butyl-1H-pyrazol-5-yl)-3-(4-fluorophenyl)urea], for which the results for the 50% inhibitory concentration (IC50) in assay [1] and in assay [2] were 390 nM and 11 nM, respectively.
In the case of `CC(C)(C)c1cc(NC(=O)Nc2cccc(Cl)c2Cl)n(-c2ccc3c(c2)C(O)CC3)n1` (stereo not shown) [Example 103, 1-[5-t-butyl-2-(3-hydroxy-indan-5-yl)-2H-pyrazol-3-yl]-3-(2,3-dichlorophenyl)urea], the results for the half-maximal inhibitory concentration (IC50) in assay [1] and in assay [2] were 240 nM and 4.5 nM, respectively.
In the case of `CC(C)(C)c1cc(NC(=O)Nc2ccc(F)cc2F)n(-c2cc(CO)c3ccccc3c2)n1` [Example 63, 1-(3-t-butyl-1-(4-(hydroxylmethyl)naphthalen-2-yl)-1H-pyrazol-5-yl)-3-(2,4-difluorophenyl)urea], the IC50 in assay [1] stood at 300 nM; in assay [2] it was 4 nM.
For `Cc1ccc(NC(=O)Nc2cc(C(C)(C)C)nn2-c2ccc3c(c2)CCNC3)cc1Nc1ncccn1` [Example 142, 1-(3-t-butyl-1-(1,2,3,4-tetrahydro-isoquinolin-6-yl)-1H-pyrazol-5-yl)-3-(4-methyl-3-(pyrimidin-2-ylamino)phenyl)-urea] the same measures were 170 nM and 35 nM.

As a reminder, the IC50 is the midpoint of a concentration-inhibition curve. The term inhibition denotes the percentage by which the read-out fell short of the control.
